Assay results reported in patent US20110034496A1, “POST-HARVEST TREATMENT” (Bayer CropScience AG, priority 2007, published 2011).

Key:
Penicillium expansum = assay: Apples dipped in fungicidal solution, then inoculated with Penicillium expansum spores at cuticle injuries; assay type: in vivo; details: for % Efficacy [Abbott] at 6 d: 6 d after inoculation; for % Efficacy [Abbott] at 10 d: 10 d after inoculation; for % Efficacy [Abbott] at 15 d: 15 d after inoculation
Method: (§1) In Example 1 and Example 2 all compounds except fluopyram were applied as commercially available. 1 weight proportion of fluopyram, however, was mixed with solvents (24.5 w/w acetone, 24.5 w/w dimethylacetamid) and emulsifier (1 w/w), respectively. Afterwards, the product was diluted in water. The concentration used is indicated below. Apples were dipped in a fungicidal solution and kept in plastic boxes for drying. Afterwards 10 μl of a spore solution of Penicillium expansum has been applied to injuries of the cuticle of the fruits. The trial has been assessed at different time intervals after inoculation. The efficacy of the products has been calculated based on the fungal growth of the treated apples with reference to the inoculated untreated control. The efficacy is shown as % Abbott.

Botrytis cinerea = assay: Apples dipped in fungicidal solution, then inoculated with Botrytis cinerea spores at cuticle injuries; assay type: in vivo; details: dip 100 g a.i./1000 ltr
Method: as §1, with “Botrytis cinerea” for “Penicillium expansum”, “6d and 10d” for “different time intervals”

[1] = dip 100 g a.i./1000 ltr., Table 1b
[2] = dip 50 g a.i./1000 ltr., Table 1b
[3] = dip 100 g a.i./1000 ltr., Table 1a
[4] = dip 750 g a.i./1000 ltr., Table 1b

## O=C(NCCc1ncc(C(F)(F)F)cc1Cl)c1ccccc1C(F)(F)F [Fluopyram, N-{2-[3-chloro-5-(trifluoromethyl)pyridin-2-yl]ethyl}-2-(trifluoromethyl)-benzamide]
Penicillium expansum; [1]
  % Efficacy [Abbott] at 6 d: 93%
  % Efficacy [Abbott] at 10 d: 90%
  % Efficacy [Abbott] at 15 d: 70%
Botrytis cinerea; 6 d after inoculation
  % Efficacy [Abbott] at 6 d: 98%
Botrytis cinerea; 10 d after inoculation
  % Efficacy [Abbott] at 10 d: 96%

## CON=C(C(=O)OC)c1ccccc1CON=C(C)c1cccc(C(F)(F)F)c1 [Trifloxystrobin, trifloxystrobin]
Penicillium expansum; [2]
  % Efficacy [Abbott] at 6 d: 50%
  % Efficacy [Abbott] at 10 d: 63%
  % Efficacy [Abbott] at 15 d: 52%

## CC(C)(C)C(O)(CCc1ccc(Cl)cc1)Cn1cncn1 (centres unmarked) [Tebuconazole, tebuconazole]
Penicillium expansum; [3]
  % Efficacy [Abbott] at 6 d: 100%
  % Efficacy [Abbott] at 10 d: 100%
Penicillium expansum; dip 100 g a.i./1000 ltr., 14 d after inoculation, Table 1a
  % Efficacy [Abbott] at 14 d: 100%

## Cc1ccc(N(SC(F)(Cl)Cl)S(=O)(=O)N(C)C)cc1 [Tolylfluanid, tolylfluanid]
Penicillium expansum; [4]
  % Efficacy [Abbott] at 6 d: 64%
  % Efficacy [Abbott] at 10 d: 60%
  % Efficacy [Abbott] at 15 d: 60%
